# According to patent publication US20090149482A1, “STEREOCHEMICALLY DEFINED DIPEPTIDE ESTERS OF ANTIVIRAL AGENTS FOR ENHANCED OCULAR TREATMENT” (priority 2001, published 2009):
# Where two headings read alike, the source gives them in different places. Marks after values point to notes of the source that are not given here. Where a SMILES comes first, the peptide text is derived from it. [ ]: non-standard residue; d: D form. Sar = CNCC(=O)O
# B1: hPEPT1 (Homo sapiens) (protein)
# chain: MGMSKSHSFFGYPLSIFFIVVNEFCERFSYYGMRAILILYFTNFISWDDNLSTAIYHTFVALCYLTPILGALIADSWLGKFKTIVSLSIVYTIGQAVTSVSSINDLTDHNHDGTPDSLPVHVVLSLIGLALIALGTGGIKPCVSAFGGDQFEEGQEKQRNRFFSIFYLAINAGSLLSTIITPMLRVQQCGIHSKQACYPLAFGVPAALMAVALIVFVLGSGMYKKFKPQGNIMGKVAKCIGFAIKNRFRHRSKAFPKREHWLDWAKEKYDERLISQIKMVTRVMFLYIPLPMFWALFDQQGSRWTLQATTMSGKIGALEIQPDQMQTVNAILIVIMVPIFDAVLYPLIAKCGFNFTSLKKMAVGMVLASMAFVVAAIVQVEIDKTLPVFPKGNEVQIKVLNIGNNTMNISLPGEMVTLGPMSQTNAFMTFDVNKLTRINISSPGSPVTAVTDDFKQGQRHTLLVWAPNHYQVVKDGLNQKPEKGENGIRFVNTFNELITITMSGKVYANISSYNASTYQFFPSGIKGFTISSTEIPPQCQPNFNTFYLEFGSAYTYIVQRKNDSCPEVKVFEDISANTVNMALQIPQYFLLTCGEVVFSVTGLEFSYSQAPSNMKSVLQAGWLLTVAVGNIIVLIVAGAGQFSKQWAEYILFAALLLVVCVIFAIMARFYTYINPAEIEAQFDEDEKKNRLEKSNPYFMSGANSQKQM
# notes: endogenous in cells; host or cells: Caco-2 (human colon carcinoma, ATCC)
# How the values were obtained:
# [1] = Plasma pharmacokinetics of stereoisomeric prodrugs following oral administration in rats
# [2] = test system: HCMV; experiment: In vitro antiviral screening, CPE inhibition in HFF cells; format: cell-based, human cytomegalovirus; settings: Human betaherpesvirus 5, HFF; HCMV, CPE Inhibition
# [3] = test system: HSV-1 strain McKrae; experiment: HSV-1 epithelial keratitis rabbit model, topical treatment, SLE scores; format: in vivo
# Text: The rabbit eye is an excellent model to study acute HSV-1 epithelial keratitis. Also, spontaneous and induced ocular HSV-1 shedding and corneal epithelial disease in rabbits has been used as a model of human ocular HSV-1 reactivation and recurrence. HSV-1 strain McKrae was used in studies for epithelial keratitis. HSV-1 strain RE was used for studies of HSV stromal keratitis.
# i) Epithelial Keratitis: A group of ten rabbits was used to study each compound. Both eyes of all rabbits were used. An aqueous vehicle (like a placebo) and one positive control were obtained using 1% TFT (Viroptic®). Each compound at 1% concentration (TFT=33 mM, Gly-Gly-ACV=26.6 mM, Val-Val-ACV=18.6 mM) were applied (50 μl) topically 5 times per day every two hours starting at 8:00 a.m. and ending at 4:00 p.m. The treatment began on the 3rd post-inoculation day and continued for 5 consecutive days. Slit-lamp examinations were performed once every day for 8 days and thereafter once every other day until lesions resolved.
# [4] = for first order hydrolytic rate constant k: 37° C.
# [5] = test system: rabbit corneal cell line (SIRC); settings: SIRC cells
# [6] = test system: Caco-2 cell suspension; settings: for 10^2 × kobs: Caco-2 cell suspension at pH 7.4, * = no intact drug detected during the experiment
# [7] = molecular target: T1, hPEPT1 (Homo sapiens, UniProt P46059); experiment: [3H] Glycylsarcosine uptake and its inhibition in Caco-2 cells (affinity towards peptide transporter); format: cell-based; settings: for effect on the uptake of [3H] Gly-Sar: Caco-2, pH 6.0, 10 minutes; for Ki: read-out: Ki; for Vmax of Gly-Sar uptake in presence of the drug: Gly-Sar with drug (10 mM)
# T1 construct: endogenous in cells; host or cells: Caco-2 (human colon carcinoma, ATCC)
# T1 sequence (P46059 1-708): B1 chain
# Text: Materials: [^3H] Glycylsarcosine (Gly-Sar; 4 Ci/mmol) was purchased from Moravek Biochemicals (Brea, Calif.) and [^14C] Mannitol (50 mCi/mmol) was supplied by Amersham (Piscataway, N.J.). Human colon carcinoma derived Caco-2 cells were obtained from American Type Culture Collection (ATCC, Rockville, Md.). The growth medium, Dulbecco's modified Eagle Medium was obtained from Life Technologies (Grand Island, N.Y.). […] Fetal bovine serum (FBS) was purchased from JRH Biosciences (Lenexa, Kans.). Culture flasks (75 cm^2 growth area), polyester Transwells® (pore size 0.4 Cm with diameter 6.5 mm) and polyester membranes (pore size 0.4 Cm) were procured from Costar (Bedford, Mass.). The buffer components and solvents were obtained from Fisher Scientific (St. Louis, Mo.). All the di-peptide esters of acyclovir were custom synthesized in our laboratory. […] Cell Culture: All cultures were maintained in humidified incubator at 37° C. with a 5% carbon dioxide in air atmosphere. Caco-2 cells were obtained at passage 25 from American Type Culture Collection (ATCC) and grown in plastic tissue culture flasks. […] When 80% confluent, these cells were removed by treating them with Trypsin/EDTA and plated at a density of 100,000 cells/cm^2 on collagen coated plastic dishes containing clear polyester membranes (0.636 cm^2, […]) or 12-well tissue culture treated plastic plates. Cells were then grown in medium containing 10% FBS (heat-inactivated). […] [^14C] […] Metabolism studies in Cell Suspensions: Confluent Caco-2 cells, grown in tissue culture flasks were isolated with the aid of mechanical scraper and washed thrice with DPBS. […] One-hundred micro-liters of samples were withdrawn at predetermined time intervals and the sample was purified by precipitating the cellular proteins into the organic solvent mixture and stored at −80° C. until further analysis. The protein content of the cell suspension was determined by the method of Bradford using bovine serum albumin as the standard (BioRad protein estimation kit, Hercules, Calif.). […] Transport studies: Transport experiments were done using Side-Bi-Side™ diffusion cells (type VSC-1, Crown Glass Company Inc.) and Transwell® inserts. Prior to the experiment with Gly-Sar, Caco-2 cell monolayers grown on the clear polyester membranes and Transwell® inserts were washed with DPBS (pH 6.0) and incubated at 37° C. Freshly prepared drug solutions in DPBS (pH 6.0) was placed in the donor chamber and the receiver chamber was filled with DPBS. The volumes of donor and receptor chambers were 3 ml each for Side-Bi-Side™ diffusion cells and 0.5 ml and 1.5 ml respectively for Transwell® inserts. […] The samples were stored at −80° C. until analyzed HPLC. All experiments were performed at 37° C. […] The concentration dependent uptake of glycylsarcosine was studied using [^3H] […] For Dixon plots and Dose Response studies [^3H] […] Following incubation, the cell monolayers were washed three times with ice-cold HEPES buffer to terminate the uptake experiment. After the washings cells were lysed overnight using 1 ml 0.1% (w/v) Triton X-100 in 0.3 N NaOH at room temperature. Aliquots (500 μl) from each well were then transferred to scintillation vials containing 5 ml scintillation cocktail (Fisher Scientific, Fairlawn, N.J.). […] The amount of protein in the cell lysate was measured by the BioRad protein estimation kit using bovine serum albumin as standard (BioRad Protein estimation Kit, Hercules, Calif.). Analytical Procedures: All samples were assayed using HPLC. […] The column used was a C18 Luna column 4.6×250 mm (Phenomenex). The mobile phase consisted of a mixture of buffer and an organic modifier. The percentage of organic phase was varied in order to elute compounds of interest.
# [8] = in vitro; settings: human, Caco-2, pH 7.4
# [9] = test system: oligopeptide transporter on the rabbit cornea
# [10] = substrate: CN(CC(=O)O)C(=O)CN; experiment: [3H] Glycylsarcosine uptake and its inhibition in Caco-2 cells (affinity towards peptide transporter); format: cell-based, human; settings: other: Gly-Sar alone, 37.0 °C
# [11] = plasma analyte following oral administration of LDACV in rats
molecule,measurement,setting,value
CC(C)[C@@H](N)C(=O)OCCOCn1cnc2c(=O)[nH]c(N)nc21 [DACV],AUC,[1]; [11],261.89 ± 23.64 µM·min
same,Cmax,[1]; [11],8.68 ± 1.24 µM
same,Tmax,[1]; [11],15 min
"CC(C)C(N)C(=O)NC(C(=O)OCCOCn1cnc2c(=O)[nH]c(N)nc21)C(C)C [DLACV, D-valine-L-valine-acyclovir]",concentrations in the systemic circulation,[1]; oral administration in rats,Very little concentrations were observed
"Nc1nc(O)c2ncn(COC(CO)CO)c2n1 [GCV, 2-amino-1,9-[[2-hydroxy-1-(hydroxymethyl)ethoxy]methyl]-6H-purin-6-one]",EC50,[2],940 nM
NCC(=O)NCC(=O)OCCOCn1cnc2c(=O)[nH]c(N)nc21 [Gly-Gly-ACV],efficacy relative to TFT (SLE scores),[3],more effective than TFT
same,Concentration required to achieve an SLE Score of 0.3,"[3]; 14 days post-inoculation, 1% topical 5 times per day",26.6 mM
same,stability as an ophthalmic solution,"[4]; pH 5.6, concluded from rate constants",stable for two years
same,first order hydrolytic rate constant k,[4]; pH 7.4,6.75 k × 10^3 min^−1
same,first order hydrolytic rate constant k,[4]; pH 9.0,14.85 k × 10^3 min^−1
same,percent survival,[5]; 0.25 mM,104.6%
same,percent survival,[5]; 0.5 mM,94.7%
same,percent survival,[5]; 1 mM,90.1%
same,percent survival,[5]; 2 mM,86.2%
same,percent survival,[5]; 5 mM,63.8%
same,percent survival,[5]; 10 mM,49.32%
same,intact drug after incubation with the cell suspension,[6]; Caco-2 cell suspension,no intact drug detected within one minute
"CN(CC(=O)O)C(=O)CN [Gly-Sar, glycylsarcosine, reference compound] (H-Gly-[Sar]-OH)",effect on the uptake of [3H] Gly-Sar,[7],significantly inhibited
same,Kd (rate constant of nonsaturable uptake component),[7]; Caco-2 uptake of glycylsarcosine,12.2 ± 0.57 µL/min/mg
same,Ki,[7]; Dixon,2.35 ± 0.67 mM
same,Ki,[7]; Dose Response (Cheng and Prusoff from IC50),2.49 mM
same,Vmax of glycylsarcosine uptake,"[7]; Gly-Sar alone, Michaelis-Menten",0.078 ± 0.005 µmol/min/mg
same,IC50,"[7]; dose response curves, read-out: IC50 of inhibition of [3H] Gly-Sar uptake",2.78 ± 0.34 mM
NCC(=O)NC(Cc1ccc(O)cc1)C(=O)OCCOCn1cnc2c(=O)[nH]c(N)nc21 (stereo not drawn) [Gly-Tyr-ACV],Vmax of Gly-Sar uptake in presence of the drug,[7]; Lineweaver-Burk,0.094 ± 0.11 µmol/min/mg
same,Ki,[7]; Lineweaver-Burk,3.94 ± 0.61 mM
same,Ki,[7]; Michaelis-Menten,3.56 ± 1.98 mM
same,10^2 × kobs,[6],3.21 ± 0.46 min^−1mg^−1 protein
same,half-life at 0.2 mM,[8],21.5 ± 3.2 min
"Nc1ccc(C(=O)NCC(=O)O)cc1 [PAH, para-aminohippuric acid, reference compound]",transport of Val-ACV (percent of control),[9]; 1 mM Val-ACV in presence of 10 mM compound,99.6±2.6% of control
"CC[N+](CC)(CC)CC [TEA, tetraethlyammonium, reference compound]",transport of Val-ACV (percent of control),[9],101.3±1.1% of control
Nc1nc2c(ncn2COCCOC(=O)CNC(=O)C(N)Cc2ccc(O)cc2)c(=O)[nH]1 (stereo not drawn) [Tyr-Gly-ACV],Vmax of Gly-Sar uptake in presence of the drug,[7]; Lineweaver-Burk,0.087 ± 0.09 µmol/min/mg
same,Ki,[7]; Lineweaver-Burk,8.23 ± 0.43 mM
same,Ki,[7]; Michaelis-Menten,7.99 ± 0.54 mM
same,10^2 × kobs,[6],5.22 ± 0.58 min^−1mg^−1 protein
same,half-life at 0.2 mM,[8],13.3 ± 1.5 min
NCC(=O)OCCOCn1cnc2c(=O)[nH]c(N)nc21 [glycine-ACV],effect on the uptake of [3H] Gly-Sar,[7],did not inhibit
Nc1nc2c(ncn2COCCOC(=O)C(N)Cc2ccc(O)cc2)c(=O)[nH]1 (centres unmarked) [tyrosine-ACV],effect on the uptake of [3H] Gly-Sar,[7],did not inhibit
"CC(C)[C@H](N)C(=O)N[C@H](C(=O)O)C(C)C [val-val, reference compound] (H-Val-Val-OH)",effect on the uptake of [3H] Gly-Sar,[7],significantly inhibited
B1,Km,[10]; Eadie-Hofstee,1.42 ± 0.19 mM
same,Vmax,[10]; Eadie-Hofstee,0.071 µmol/min/mg
same,Km,[10]; Lineweaver-Burk (control),2.04 ± 0.61^a mM
same,Vmax,[10]; Lineweaver-Burk (control),0.086 µmol/min/mg
same,Km,[10]; Michaelis-Menten,1.63 ± 0.25 mM
same,Vmax,[10]; Michaelis-Menten,0.078 µmol/min/mg
